For experiment [1], the system named is lipid peroxide formation in rat liver homogenate. Description: Antioxiding effect: inhibitory activity against formation of peroxidized fat (lipid peroxide by TBA method). Type of experiment: biochemical, Male Sprague Dawley rat. The conditions noted are these: 200 μM FeCl2, 10% rat liver homogenate, 37° C., 1 hr. The procedure:
The antioxiding effect of the compounds of the present invention has confirmed by the screening system which examines inhibitory activity against formation of peroxidized fat mentioned below. Male Sprague Dawley rat was fasted for 12 hrs (overnight) before experiments, and was anesthetized with ether. Rat liver was perfused with ice-cold 0.9% NaCl via the portal vein, and promptly excised. 10% Liver homogenates were prepared in ice-cold 1.15% KCl. The reaction was started by adding 200 μM FeCl2 to the liver homogenate ([…]), and incubated at 37° C. for 1 hr. Lipid peroxide was measured by the TBA method according to the method of Ohkawa (See Analytical Biochemistry,95, 351 (1979)). The compounds of the present invention were added before incubation. And the efficacy thereof was examined and calculated IC50 values thereof.

In experiment [2] the test system is Lysozyme (dimer formation with fructose). In words: Inhibitory activity on Maillard reaction: formation of lysozyme dimer (lysozyme + fructose, SDS-PAGE, densitometer). Format: biochemical. The conditions noted are these: lysozyme 10 mg/ml, fructose 100 mM, 0.2M sodium phosphate buffer pH 7.4, 37° C., 3 days. The procedure:
The inhibitory activity on Maillard reaction of the compounds of the present invention has confirmed by the screening system mentioned below. Lysozyme (10 mg/ml) and fructose (100 mM) were dissolved in 0.2M sodium phosphatic buffer solution (PH 7.4). The solution was incubated at a temperature of 37° C. for 3 days. A given volume of the reaction solution was separated using SDS-PAGE by the electrophoresis. After the electrophoresis, the SDS-PAGE was dyed by 0.2% Coomassie Brilliant Blue R-250 and then the dimer was determined by densitometer. The compounds of the present invention were added before incubation and the inhibitory activity of them against the formation of the dimer was examined in various concentrations and IC50 values were calculated.

Experiment [3] has as its system advanced glycosylation end products in arterial wall connective tissue protein. The conditions noted are these: administered to diabetic rats; Brownlee et al., Science 232, 1629 (1986); cited from earlier work.
The subject of another experiment is Maillard reaction. The conditions noted are these: Brownlee et al., Science 232, 1629 (1986); cited from earlier work.

pIC50: −log10 of the molar value. Structures can show the parent of a compound that is named as a salt.

A word on the pIC50: it is −log10 of the IC50, conventionally taken in molar units. In experiment [1], `Cc1c(C)c2c(c(C)c1O)CCC(C)(CCOC(=O)CCCCNC(=N)N)O2` (centres unmarked) [1 (c), 2-(6-hydroxy-2,5,7,8-tetramethyl-3,4-dihydro-2H-benzo[1,2-b]pyran-2-yl)ethyl5-quanidinopentanoate hydrochloride] showed a pIC50 of 6.10.

Consider `Cc1c(C)c2c(c(C)c1O)CCC(C)(CCOC(=O)c1ccc(N(C)C(=N)N)cc1)O2` (centres unmarked) [1 (m), 2-(6-hydroxy-2,5,7,8-tetramethyl-3,4-dihydro-2H-benzo[1,2-b]pyran--2-yl)ethyl 4-(1-methylquanidino)-benzoate hydrochloride], for which the values for the pIC50 in experiment [1] and in experiment [2] were 6.22 and 3.36, respectively.

Take `Cc1c(C)c2c(c(C)c1O)CCC(C)(CCOC(=O)c1ccc(NC(=N)N)cc1)O2` (centres unmarked) [1 (a), 2-(6-hydroxy-2,5,7,8-tetramethyl-3,4-dihydro-2H-benzo[1,2-b]pyran-2-yl)ethyl4-quanidinobenzoate hydrochloride]: the pIC50 is 6.27 in experiment [1] and 3.70 in experiment [2].

`Cc1c2c(c3ccccc3c1O)OC(C)(CCOC(=O)/C=C/c1ccc(NC(=N)N)cc1)CC2` (centres unmarked) [1 (l), 2-(2,5-dimethyl-6-hydroxy-3,4-dihydro-2H-naphtho[1,2-b]pyran-2-yl)ethyl 4-quanidinocinnamatehydrochloride] gave a pIC50 in experiment [1] of 6.42.

Turning to `Cc1c(C)c2c(c(C)c1O)CCC(C)(CCNC(=N)NN)O2` (centres unmarked) [Example 3, 1-amino-3-[2-(6-hydroxy-2,5,7,8-tetramethyl-3,4-dihydro-2H-benzo[1,2-b]pyran-2-yl)ethyl]guanidine hydroiodide], the values for the negative logarithm of the IC50 (pIC50) in experiment [1] and in experiment [2] were 6.27 and 3.44, respectively.

Molecule `Cc1c2c(c3ccccc3c1O)OC(C)(CCOC(=O)c1cccc(NC(=N)N)c1)CC2` (centres unmarked) [1 (k), 2-(2,5-dimethyl-6-hydroxy-3,4-dihydro-2H-naphtho[1,2-b]pyran-2-yl)ethyl 3-quanidinobenzoatehydrochloride] showed a negative logarithm of the IC50 (pIC50) in experiment [1] of 6.36.

Regarding `Cc1c(C)c2c(c(C)c1O)CCC(C)(CCNC(=O)c1ccc(NC(=N)N)cc1)O2` (centres unmarked) [Example 2, N-[2-(6-hydroxy-2,5,7,8-tetramethyl-3,4-dihydro-2H-benzo[1,2-b]pyran-2-yl)ethyl]-4-guanidinobenzamide hydrochloride], the negative-log IC50 (pIC50) in experiment [1] is 6.18; in experiment [2], 3.35.

For the molecule `Cc1c(C)c2c(c(C)c1O)CCC(C)(CCOC(=O)/C=C/c1ccc(NC(=N)N)cc1)O2` (centres unmarked) [1 (h), 2-(6-hydroxy-2,5,7,8-tetramethyl-3,4-dihydro-2H-benzo[1,2-b]pyran-2-yl)ethyl4-quanidinocinnamate hydrochloride], the pIC50 is 6.05 in experiment [1] and 4.28 in experiment [2].

Molecule `Cc1c(C)c2c(c(C)c1O)CCC(C)(CCNC(=O)C1CCC(CNC(=N)N)CC1)O2` (centres unmarked) [2 (a), N-[2-(6-hydroxy-2,4,7,8-tetramethyl-3,4-dihydro-2H-benzo[1,2-b]pyran-2-yl)-ethyl]-4-quanidinomethyl-cyclohexanecarboxamide hydrochloride] showed a pIC50 in experiment [1] of 6.11.

As to `Cc1c(C)c2c(c(C)c1O)CCC(C)(CCOC(=O)CCc1ccc(NC(=N)N)cc1)O2` (centres unmarked) [1 (g), 2-(6-hydroxy-2,5,7,8-tetramethyl-3,4-dihydro-2H-benzo[1,2-b]pyran-2-yl)ethyl3-(4-quanidinophenyl)-propionate hydrochloride], in experiment [1], the negative logarithm of the IC50 (pIC50) was 6.05.

As to `Cc1c2c(c3ccccc3c1O)OC(C)(CCOC(=O)c1ccc(NC(=N)N)cc1)CC2` (centres unmarked) [1 (e), 2-(2,5-dimethyl-6-hydroxy-3,4-dihydro-2H-naphtho[1,2-b]pyran-2-yl)ethyl 4-quanidinobenzoatehydrochloride], the negative-log IC50 (pIC50) was 6.80 in experiment [1] and 4.30 in experiment [2].

Turning to `Cc1c2c(c3ccccc3c1O)OC(C)(CCOC(=O)c1ccc(CNC(=N)N)cc1)CC2` (centres unmarked) [1 (j), 2-(2,5-dimethyl-6-hydroxy-3,4-dihydro-2H-naphtho[1,2-b]pyran-2-yl)ethyl 4-quanidinomethylbenzoatehydrochloride], the negative-log IC50 (pIC50) in experiment [1] was 6.34; in experiment [2] it was 4.22.

`Cc1c(C)c2c(c(C)c1O)CCC(C)(CCOc1ccc(NC(=O)c3cccc(NC(=N)N)c3)cc1)O2` (centres unmarked) [7 (a), N-[4-[2-(6-hydroxy-2,5,7,8-tetramethyl-3,4-dihydro-2H-benzo[1,2-b]pyran-2-yl)-ethoxy]phenyl]-3-guanidino-benzamide hydrochloride]: the pIC50 in experiment [2] was 3.70.

Turning to `Cc1c(C)c2c(c(C)c1O)CCC(C)(CCCCNC(=N)NN)O2` (centres unmarked) [Example 8, 1-amino-3-[4-(6-hydroxy-2,5,7,8-tetramethyl-3,4-dihydro-2H-benzo[1,2-b]pyran-2-yl)butyl]guanidine hydroiodide], the negative logarithm of the IC50 (pIC50) in experiment [2] was 3.52.

Regarding `Cc1c(C)c2c(c(C)c1O)CCC(C)(CCOC(=O)C1CCC(CNC(=N)N)CC1)O2` (centres unmarked) [1 (b), 2-(6-hydroxy-2,5,7,8-tetramethyl-3,4-dihydro-2H-benzo[1,2-b]pyran-2-yl)ethyl4-quanidinomethylcyclohexane carboxylatehydrochloride], in experiment [1], the pIC50 was 6.11.

`CCOC(=O)c1cc(NC(=N)N)ccc1OCCC1(C)CCc2c(C)c(O)c(C)c(C)c2O1` (centres unmarked) [Example 15, 2-ethoxycarbonyl-4-guanidinophenyl 2-(6-hydroxy-2,5,7,8-tetramethyl-3,4-dihydro-2H-benzo[1,2-b]pyran-2-yl)ethyl ether hydrochloride]: the negative-log IC50 (pIC50) in experiment [2] is 3.66.

In turn, `Cc1c(C)c2c(c(C)c1O)CCC(C)(CCNC(=O)c1ccc(CNC(=N)N)cc1)O2` (centres unmarked) [2 (b), N-[2-(6-hydroxy-2,4,7,8-tetramethyl-3,4-dihydro-2H-benzo[1,2-b]pyran-2-yl)-ethyl]-4-quanidinomethyl-benzamide hydrochloride] gave a pIC50 in experiment [1] of 6.33.

For `Cc1c(C)c2c(c(C)c1O)CCC(C)(CCN(Cc1ccccc1)C(=O)/C=C/c1ccc(NC(=N)N)cc1)O2` (centres unmarked) [24 (a), N-benzyl-N-[2-(6-hydroxy-2,5,7,8-tetramethyl-3,4-dihydro-2H-benzo[1,2-b]pyran-2-yl)ethyl]-4-guanidinocinnamamide hydrochloride], the pIC50 in experiment [2] was 4.17.

Regarding “N-[4-[2-(6-hydroxy-2,5,7,8-tetramethyl-3,4-dihydro-2H-benzo[1,2-b]pyran-2-yl)-ethoxy]phenyl]-3-guanidino-cinnamamide hydrochloride [7 (b)]”, in experiment [2], the negative-log IC50 (pIC50) is 4.92.

Turning to `N=C(N)NN` [aminoguanidine], the “inhibition of diabetes-induced accumulation of advanced glycosylation end products in arterial wall connective tissue protein” value in experiment [3] is recorded as “inhibits diabetes-induced accumulation of advanced glycosylation end products in arterial wall connective tissue protein”. Further, the “inhibition of Maillard reaction in vitro” value with Maillard reaction is reported as “inhibits Maillard reaction in vitro”.

On to `Cc1c(C)c2c(c(C)c1O)CCC(C)(CCCCSc1ccc(NC(=N)N)cc1)O2` (centres unmarked) [10 (e), 4-guanidinophenyl 4-(6-hydroxy-2,5,7,8-tetramethyl-3,4-dihydro-2H-benzo[1,2-b]pyran-2-yl)butyl thioether hydrochloride], for which the pIC50 in experiment [2] was 4.44.

For `Cc1c(C)c2c(c(C)c1O)CCC(C)(CCOc1ccc(NC(=O)c3cccc(NC(=N)N)c3)cc1C(F)(F)F)O2` (centres unmarked) [7 (m), N-[4-[2-(6-hydroxy-2,5,7,8-tetramethyl-3,4-dihydro-2H-benzo[1,2-b]pyran-2-yl)-ethoxy]-3-trifluoromethyl-phenyl]-3-guanidinobenzamidehydrochloride], the negative-log IC50 (pIC50) in experiment [2] was 4.92.

Take `Cc1c(C)c2c(c(C)c1O)CCC(C)(CCCCOc1ccc(NC(=N)N)cc1)O2` (centres unmarked) [Example 10, 4-guanidinophenyl 4-(6-hydroxy-2,5,7,8-tetramethyl-3,4-dihydro-2H-benzo[1,2-b]pyran-2-yl)butyl ether hydrochloride]: in experiment [2], the negative-log IC50 (pIC50) is 4.12.

As for `Cc1c(C)c2c(c(C)c1O)CCC(C)(CCOC(=O)c1ccc(CNC(=N)N)cc1)O2` (centres unmarked) [Example 1, 2-(6-hydroxy-2,5,7,8-tetramethyl-3,4-dihydro-2H-benzo[1,2-b]pyran-2-yl)ethyl 4-guanidinomethylbenzoate hydrochloride], the pIC50 in experiment [1] was 6.22.

The record behind these values is patent publication US5508450A, “Benzopyran derivatives” (Ono Pharmaceutical Co., Ltd., priority 1989, dated 1996).
